Measured values published in ChEMBL document CHEMBL1687741, “Population pharmacokinetics of lumefantrine in pregnant women treated with artemether-lumefantrine for uncomplicated Plasmodium falciparum malaria” (Antimicrob Agents Chemother, 2009).

Tests used:
Format in all cases: ADME, organism-based
[1] = Cmax in capillary plasma of pregnant human patient with uncomplicated multidrug-resistant Plasmodium falciparum malaria at 120 mg, po administered as 4 tablets BID for 5 days coadministered with 20 mg artemether measured on 7 days by two-compartment population pharmacokinetic model; design: dose 120 mg, route oral; details: female
[2] = Cmax in pregnant human patient with uncomplicated multidrug-resistant Plasmodium falciparum malaria at 120 mg, po administered as 4 tablets BID for 5 days coadministered with 20 mg artemether measured after 7 days by two-compartment population pharmacokinetic model; design: dose 120 mg, route oral; details: female, in vivo
[3] = Cmax in pregnant human patient with uncomplicated multidrug-resistant Plasmodium falciparum malaria at 120 mg, po administered as 4 tablets BID for 4 days coadministered with 20 mg artemether measured after 7 days by two-compartment population pharmacokinetic model; design: dose 120 mg, route oral; details: female, in vivo
[4] = Cmax in pregnant human patient with uncomplicated multidrug-resistant Plasmodium falciparum malaria at 120 mg, po administered as 4 tablets BID for 5 days coadministered with 20 mg artemether by two-compartment population pharmacokinetic model; design: dose 120 mg, route oral; details: female, in vivo
[5] = Cmax in pregnant human patient with uncomplicated multidrug-resistant Plasmodium falciparum malaria at 120 mg, po administered as 4 tablets BID for 4 days coadministered with 20 mg artemether by two-compartment population pharmacokinetic model; design: dose 120 mg, route oral; details: female, in vivo
[6] = Cmax in pregnant human patient with uncomplicated multidrug-resistant Plasmodium falciparum malaria at 120 mg, po administered as 4 tablets BID for 3 days coadministered with 20 mg artemether by two-compartment population pharmacokinetic model; design: dose 120 mg, route oral; details: female, in vivo
[7] = Drug concentration in pregnant human patient with uncomplicated multidrug-resistant Plasmodium falciparum malaria at 120 mg, po administered as 4 tablets BID for 3 days coadministered with 20 mg artemether; details: female, in vivo, read-out: Drug uptake
[8] = Drug concentration in pregnant human with uncomplicated multidrug-resistant Plasmodium falciparum malaria infection at 120 mg, po administered as 4 tablets BID for 3 days coadministered with 20 mg artemether; details: female, in vivo, read-out: Drug uptake
[9] = Drug concentration in pregnant human patient with reappeared uncomplicated multidrug-resistant Plasmodium falciparum malaria infection at 120 mg, po administered as 4 tablets BID for 3 days coadministered with 20 mg artemether; details: female, in vivo, read-out: Drug uptake
[10] = Drug concentration in pregnant human patient with uncomplicated multidrug-resistant Plasmodium falciparum malaria at 120 mg, po administered as 4 tablets BID for 3 days coadministered with 20 mg artemether measured after 7 days by two-compartment population pharmacokinetic model; details: female, in vivo, read-out: Drug uptake
Homo sapiens [11] = assay: AUC (0 to infinity) in pregnant human patient with uncomplicated multidrug-resistant Plasmodium falciparum malaria at 120 mg, po administered as 4 tablets BID for 3 days coadministered with 20 mg artemether by two-compartment population pharmacokinetic model; design: dose 120 mg, time infinity, route oral; details: in vivo, 72 h
[12] = Terminal elimination half-life in pregnant human patient with uncomplicated multidrug-resistant Plasmodium falciparum malaria at 120 mg, po administered as 4 tablets BID for 3 days coadministered with 20 mg artemether by two-compartment population pharmacokinetic model; details: female, in vivo, read-out: beta t1/2 (converted)
Homo sapiens [13] = assay: Volume of distribution at steady state in pregnant human patient with uncomplicated multidrug-resistant Plasmodium falciparum malaria at 120 mg, po administered as 4 tablets BID for 3 days coadministered with 20 mg artemether by two-compartment population pharmacokinetic model; details: in vivo, 72 h
Homo sapiens [14] = assay: Absorption rate constant in pregnant human patient with uncomplicated multidrug-resistant Plasmodium falciparum malaria at 120 mg, po administered as 4 tablets BID for 3 days coadministered with 20 mg artemether by two-compartment population pharmacokinetic model; details: in vivo, 72 h
Homo sapiens [15] = assay: Apparent peripheral volume of distribution in pregnant human patient with uncomplicated multidrug-resistant Plasmodium falciparum malaria at 120 mg, po administered as 4 tablets BID for 3 days coadministered with 20 mg artemether by two-compartment population pharmacokinetic model; details: in vivo, 72 h
Homo sapiens [16] = assay: Intercompartmental clearance in pregnant human patient with uncomplicated multidrug-resistant Plasmodium falciparum malaria at 120 mg, po administered as 4 tablets BID for 3 days coadministered with 20 mg artemether by two-compartment population pharmacokinetic model; details: in vivo, 72 h
Homo sapiens [17] = assay: Apparent volume of distribution in pregnant human patient with uncomplicated multidrug-resistant Plasmodium falciparum malaria at 120 mg, po administered as 4 tablets BID for 3 days coadministered with 20 mg artemether by two-compartment population pharmacokinetic model; details: in vivo, 72 h
Homo sapiens [18] = assay: Clearance in pregnant human patient with uncomplicated multidrug-resistant Plasmodium falciparum malaria at 120 mg, po administered as 4 tablets BID for 3 days coadministered with 20 mg artemether by two-compartment population pharmacokinetic model; details: in vivo, 72 h
[19] = Cmax in venous plasma of pregnant human patient with uncomplicated multidrug-resistant Plasmodium falciparum malaria at 120 mg, po administered as 4 tablets BID for 5 days coadministered with 20 mg artemether measured on 7 days by two-compartment population pharmacokinetic model; design: dose 120 mg, route oral; details: female
Homo sapiens [20] = assay: Tlag in pregnant human patient with uncomplicated multidrug-resistant Plasmodium falciparum malaria at 120 mg, po administered as 4 tablets BID for 3 days coadministered with 20 mg artemether measured after 7 days by two-compartment population pharmacokinetic model; details: in vivo

Compound: CCCCN(CCCC)CC(O)c1cc(Cl)cc2c1-c1ccc(Cl)cc1/C2=C/c1ccc(Cl)cc1 (stereo not given) [LUMEFANTRINE]
- Cmax [1]: 433 ng/mL
- Cmax [2]: 498 ng/mL
- Cmax [3]: 314 ng/mL
- Cmax [4]: 2430 ng/mL
- Cmax [5]: 2480 ng/mL
- Cmax [6]: 2080 ng/mL
- concentration at 72 h [7]: 135 ng/mL
- concentration at 72 h [8]: 136 ng/mL
- concentration at 72 h [9]: 126 ng/mL
- concentration at 168 h [10]: 391 ng/mL
- AUC (Homo sapiens [11]): 472 µg·h/mL
- half-life [12]: 79.2 h
- Vz (Homo sapiens [13]): 181 L
- Ka (Homo sapiens [14]): 0.0588 h⁻¹
- Vp/F (Homo sapiens [15]): 160 L
- CL (Homo sapiens [16]): 1.82 L/h
- Vz (Homo sapiens [17]): 20.2 L
- CL (Homo sapiens [18]): 6.11 L/h
- Cmax [19]: 49 ng/mL
- Time (Homo sapiens [20]): 1.67 h
